Melting point data for 24 compounds are collected here from patent US20040110763A1, “Pyrazolopyridine compound and pharmaceutical use thereof” (priority 2000, published 2004).

The term melting point denotes the temperature, or range, at which the solid turns liquid. On to `CC(=O)Nc1ccn2nc(-c3ccccc3)c(-c3ccc(=O)n(C(C)C)n3)c2c1` [Example 147, 5-acetylamino-3-(3-oxo-2-isopropyl-2,3-dihydropyridazin-6-yl)-2-phenylpyrazolo[1,5-a]pyridine], for which the melting point was in the range of 221 to 222 °C.
The figure for `CCN(CC)CCOc1ccn2nc(-c3ccccc3)c(-c3ccc(=O)n(C(C)C)n3)c2c1` [Example 25, 5-[2-(Diethylamino)ethoxy]-3-(3-oxo-2-isopropyl-2,3-dihydropyridazin-6-yl)-2-phenylpyrazolo[1,5-a]pyridine] is 92.5 to 94.5 °C; for `COc1ccn2nc(-c3ccccc3)c(-c3ccc(=O)n(C4CCOCC4)n3)c2c1` [Example 124, 5-Methoxy-3-[3-oxo-2-(tetrahydropyran-4-yl)-2,3-dihydropyridazin-6-yl]-2-phenylpyrazolo[1,5-a]pyridine] it is 224 to 225 °C.
Turning to `CC(C)n1nc(-c2c(-c3ccccc3)nn3ccc(C(=O)N4CCCCC4)cc23)ccc1=O` [Example 89, 5-(1-Piperidinylcarbonyl)-3-(3-oxo-2-isopropyl-2,3-dihydropyridazin-6-yl)-2-phenylpyrazolo[1,5-a]pyridine], the melting point was in the range of 185 to 186 °C.
Under `CCOCCNC(=O)c1ccn2nc(-c3ccccc3)c(-c3ccc(=O)n(C(C)C)n3)c2c1` [Example 78, N-(2-Ethoxyethyl)-3-(3-oxo-2-isopropyl-2,3-dihydropyridazin-6-yl)-2-phenylpyrazolo[1,5-a]pyridine-5-carboxamide] stands 149 to 150 °C; under `CCOc1cccn2nc(-c3ccccc3)c(-c3ccc(=O)n(C(C)C)n3)c12` [Example 196, 4-ethoxy-3-(3-oxo-2-isopropyl-2,3-dihydropyridazin-6-yl)-2-phenylpyrazolo[1,5-a]pyridine], 157 to 158 °C.
The figure for `CC(C)n1nc(-c2c(-c3ccccc3)nn3ccc(C(=O)NC4CCCCCC4)cc23)ccc1=O` [Example 140, N-Cycloheptyl-3-(3-oxo-2-isopropyl-2,3-dihydropyridazin-6-yl)-2-phenylpyrazolo[1,5-a]pyridine-5-carboxamide] is 239 to 240 °C.
The figure for `CCCn1nc(-c2c(-c3ccc(F)cc3)nn3ccc(OC)cc23)ccc1=O` [Example 132, 5-Methoxy-3-(3-oxo-2-propyl-2,3-dihydropyridazin-6-yl)-2-(4-fluorophenyl)pyrazolo[1,5-a]pyridine] is 190 to 191 °C; for `CC(C)n1nc(-c2c(-c3ccccc3)nn3ccc(OCCN4CCCC4=O)cc23)ccc1=O` [Example 28, 5-[2-(2-Oxo-1-pyrrolidinyl)ethoxy]-3-(3-oxo-2-isopropyl-2,3-dihydropyridazin-6-yl)-2-phenylpyrazolo [1,5-a]pyridine] it is 162 to 163 °C; for `CC(C)n1nc(-c2c(-c3ccccc3)nn3ccc(OCCN4CCOCC4)cc23)ccc1=O` [Example 6, 5-[2-(4-morpholinyl)ethoxy]-3-(3-oxo-2-isopropyl-2,3-dihydropyridazin-6-yl)-2-phenylpyrazolo[1,5-a]pyridine] it is 160 to 162 °C.
`COc1ccn2nc(-c3ccccc3)c(-c3ccc(=O)[nH]n3)c2c1` [Example 1, 5-methoxy-3-(3-oxo-2,3-dihydropyridazin-6-yl)-2-phenylpyrazolo[1,5-a]-pyridine]: the melting point fell in the range of 245.5 to 247 °C.
The figure for `COc1ccn2nc(-c3ccccc3)c(-c3ccc(=O)n(C)n3)c2c1` [Example 115, 5-Methoxy-3-(3-oxo-2-methyl-2,3-dihydropyridazin-6-yl)-2-phenylpyrazolo[1,5-a]pyridine] is 183 to 184 °C; for `CC(C)n1nc(-c2c(-c3ccccc3)nn3ccc(OCC(=O)OCc4ccccc4)cc23)ccc1=O` [Example 32, Benzyl {[3-(3-oxo-2-isopropyl-2,3-dihydropyridazin-6-yl)-2-phenylpyrazolo[1,5-a]pyridin-5-yl]oxy}acetate] it is 174 to 174.5 °C; for `CC(C)n1nc(-c2c(-c3ccccc3)nn3ccc(C(=O)NC(C)(C)C)cc23)ccc1=O` [Example 83, N-(tert-Butyl)-3-(3-oxo-2-isopropyl-2,3-dihydropyridazin-6-yl)-2-phenylpyrazolo[1,5-a]pyridine-5-carboxamide] it is 200 to 201 °C.
The figure for `CC(C)OCCNC(=O)c1ccn2nc(-c3ccccc3)c(-c3ccc(=O)n(C(C)C)n3)c2c1` [Example 86, N-(2-Isopropoxyethyl)-3-(3-oxo-2-isopropyl-2,3-dihydropyridazin-6-yl)-2-phenylpyrazolo[1,5-a]pyridine-5-carboxamide] is 124 to 125 °C; for `COc1ccn2nc(-c3ccccc3)c(-c3ccc(=O)n(C4CCOC4)n3)c2c1` (stereo not drawn) [Example 118, 5-Methoxy-3-[3-oxo-2-(tetrahydrofuran-3-yl)-2,3-dihydropyridazin-6-yl]-2-phenylpyrazolo[1,5-a]pyridine] it is 207 to 208 °C.
For the compound `CC(C)n1nc(-c2c(-c3ccccc3)nn3ccc(OCC(=O)Nc4ccccc4)cc23)ccc1=O` [Example 44, 2-{[3-(3-Oxo-2-isopropyl-2,3-dihydropyridazin-6-yl)-2-phenylpyrazolo[1,5-a]pyridin-5-yl]oxy}-N-phenylacetamide], the melting point was 208 to 209 °C.
The figure for `COc1ccn2nc(-c3ccc(F)cc3)c(-c3ccc(=O)n(C)n3)c2c1` [Example 130, 5-Methoxy-3-(3-oxo-2-methyl-2,3-dihydropyridazin-6-yl)-2-(4-fluorophenyl)pyrazolo[1,5-a]pyridine] is 221 to 222 °C.
Under `CC(=O)COc1ccn2nc(-c3ccccc3)c(-c3ccc(=O)n(C(C)C)n3)c2c1` [Example 27, 5-(2-Oxopropoxy)-3-(3-oxo-2-isopropyl-2,3-dihydropyridazin-6-yl)-2-phenylpyrazolo[1,5-a]pyridine] stands 172.5 to 173.5 °C; under `CC(C)n1nc(-c2c(-c3ccccc3)nn3ccc(N)cc23)ccc1=O` [Example 146, 5-amino-3-(3-oxo-2-isopropyl-2,3-dihydropyridazin-6-yl)-2-phenylpyrazolo[1,5-a]pyridine], 196 to 197 °C; under `CC(C)n1nc(-c2c(-c3ccccc3)nn3ccc(Oc4ccccc4)cc23)ccc1=O` [Example 37, 5-Phenoxy-3-(3-oxo-2-isopropyl-2,3-dihydropyridazin-6-yl)-2-phenylpyrazolo[1,5-a]pyridine], 181 to 182 °C.
`CC(C)n1nc(-c2c(-c3ccccc3)nn3ccc(N4CCN(C(=O)c5ccccc5)CC4)cc23)ccc1=O` [Example 112, 5-(4-Benzoyl-1-piperazinyl)-3-(3-oxo-2-isopropyl-2,3-dihydropyridazin-6-yl)-2-phenylpyrazolo[1,5-a]pyridine]: the melting point was in the range of 124 to 126 °C.
Under `CC(C)n1nc(-c2c(-c3ccccc3)nn3ccc(N4CCN(c5ccccc5)CC4)cc23)ccc1=O` [Example 99, 5-(4-Phenyl-1-piperazinyl)-3-(3-oxo-2-isopropyl-2,3-dihydropyridazin-6-yl)-2-phenylpyrazolo[1,5-a]pyridine] stands > 240 °C.
The figure for `CC(C)n1nc(-c2c(-c3ccccc3)nn3ccc(N4CCN(c5ccccn5)CC4)cc23)ccc1=O` [Example 102, 5-[4-(2-Pyridinyl)-1-piperazinyl]-3-(3-oxo-2-isopropyl-2,3-dihydropyridazin-6-yl)-2-phenylpyrazolo[1,5-a]pyridine] is 221 to 222 °C.
